Where two headings read alike, the source gives them in different places. Marks after values point to notes of the source that are not given here.
Columns and labels:
[1] = target: T1, β2-adrenoceptor (Cavia porcellus, UniProt Q8K4Z4); experiment: β2 adrenergic blockade against isoproterenol, isolated guinea pig respiratory tract (Schild plot); settings: versus isoproterenol relaxation of detached respiratory tract; Schild plot regression
T1 construct: from tissue; host or cells: isolated guinea pig trachea (spiral strips, reserpine-pretreated animal)
Procedure: 300-450 gram guinea pig is obtained, and 5 mg/kg reserpine is injected on the belly 18˜24 hours prior to the experiment. Upon hitting the guinea pig into comatose, the artery at the neck is cut and the blood released, and the chest is immediately cut open and the respiratory tract (approximately 4 centimeters long) is taken along the neck and placed in a cultivation dish containing Krems solution at room temperature and connected to mixed gas of 95% oxygen and 5% carbon dioxide. The surrounding tissues are carefully removed, then the respiratory tract is cut to spiral shape that contains 3 to 4 bone coils at each turn, and then cut in two halves, with the two sides clamped by the frog-heart tweezer; one end is stabilized at the bottom and placed in the organ rinser filled with 20 ml of Krebs solution with mixed gas and the temperature maintained at 32° C.; the other side is connected to the force transducer, and even-length isometric contraction is recorded through the Coulbourn At-High-Speed Videograph. The sample is given 2 grams of tension, and upon balancing, the following experiment is conducted.
The respiratory tract used in the experiment is first balanced (approximately one hour) to derive a reflex tension, and then for each half of the respiratory tract, cumulative concentration-response curve for the isoproterenol is completed twice. In the first curve, no synthetic testing compound is added, and is used as the control unit; in the second curve, the synthetic compound first added for an hour before implementing the cumulative concentration-response curve, which is the experimental unit.

[2] = system: isolated guinea pig thoracic aorta; settings: 10 μM L-phenylephrine contraction, mean ± S.E. (n=6)
From the text: A 300-450 gram guinea pig is obtained, and forcefully hit at the head, and blood drained from the artery at the neck to quickly retrieve the main chest artery, which is placed in chilled Kreb solution and the fatty tissue clung to the vicinity of the blood vein is carefully removed, and then the main chest artery is trimmed to a circular shape of approximately 5 mm. Two S-shaped platinum threads are used to stabilize the top and bottom of the main artery before placing it in a 10-milliliter organ tank with 95% oxygen and 5% carbon dioxide mixed gas. One end is connected to the bottom of the organ tank, and the other end connected to the force transducer, and a recorder is used to record the isometric contraction. The specimen is given one gram of tension, and after balancing for 60 minutes, 10 μM of phenylephrine is prescribed to test the vivacity of the main chest artery. Upon balancing and the phenylephrine rinsed off, 10 μM of phenylephrine is used again to achieve the maximum contraction. And upon balancing, different concentration of synthetic testing compounds are used, 10^−5 M, 10^−6 M, or 10^−7 M, to observe the suppressing effects resulted from different concentrations of synthetic testing compounds.

[3] = system: β1-adrenoceptor; settings: versus isoproterenol, pulsating rate of right atrium; Schild plot regression; six to eight experiments
From the text: A 300˜450 gram guinea pig is obtained and hit forcefully at the head to put it into comatose, the artery at the neck is cut to release the blood, then the chest is immediately cut open, and the heart quickly retrieved and placed in Krebs solution that is connected to mixed gas(95% oxygen, 5% carbon dioxide), and the left, right auricles separated. The right auricle, which is pulsating in reflex action, is pinned down on both ends by a frog-heart tweezer, and one end stabilized at the bottom and placed in an organ rinser filled with 10 milliliter of Krebs solution with the mixed gas, and the temperature maintained at 32.5[…]; the other end is connected to the force transducer, and the isometric contractions and pulsating frequency are recorded through the Coulbourn At-High-Speed Videograph. The specimen is given tension between 100-150 milligrams, and upon balancing, the following experiment is conducted:
In order to evaluate the degree of vivacity of the β-blockade on the synthetic compounds, for each detached auricle in reflex pulsation, upon balancing(approximately 60 minutes), the cumulative-concentration curve of the β-agonist isoproterenol is completed twice separately. The experiment is designed as follows: <1>The first curve indicates direct application of isoproterenol from low concentration to high using 0.5 log unit to gradually increase until it reaches the maximum reaction; this is the control unit. <2>the second curve is the experimental unit. Different concentrations of synthetic testing compounds(10^−7 M, 10^−6 M, or 10^−5 M), from low concentration to high, are given 30 minutes to react before isoproterenol is used to complete the cumulative prescription. The EC50 value is obtained from observation of the suppressing effects generated from different concentrations of synthetic testing compounds.
According to the method used by Arunlakshana and Schild in 1959, the corresponding values of the synthetic testing compounds are used as the horizontal coordinate, and the corresponding values on the first derivative of the dose ratio are used as the vertical coordination, the values obtains are graphed and linear regression is implemented to obtain a regressed straight-line horizontal coordinate's extracted distance value, which is the pA2 value for this particular synthetic testing compound.

[4] = system: β1-adrenoceptor; settings: versus isoproterenol, contraction of left atrium; Schild plot regression; six to eight experiments
Procedure: The stimulating frequency is 0.5 Hz, resting tension is 0.5 grams. Upon balancing(approximately 50 minutes) the following experiment is conducted;
(a) Completion of the cumulative concentration-response curves, which is similar to the experimenting methods use on the same detached right auricle.
(b) The calculation of pA2 value is same as the calculation method used in the experiment of the detached right auricle.

[5] = system: pentobarbital-anesthetized normotensive rats; settings: mean ± S.E. (n=6)
Procedure: A male Wistar Strain, weighing 300˜450 grams, is administered with 40 mg/kg of pentobarbital sodium via hypodermic syringe for anesthesia before implementing trachea dissection and inserting respiratory tube to ensure the animal maintains smooth breath during operation, while also facilitating emergency rescue. The tube insertion is done with a polyethylene tube (PE50), with inner diameter of […] and outer diameter of 0.97 mm, on the femoral vein to facilitate administering medication during the experiment; a 3-way stopcock is used by connecting one end to the medicated bottle, while the other end is connected to the saline solution bottle, thus some saline solution can be injected right after administering the medication to prevent the medication from lingering in the polyethylene tube (PE50) that may affect the accuracy of the experiment. The left artery is also inserted with the polyethylene tube(PE50) by using the same 3-way stopcock with one end connected to heparin solution as the polyethylene tube (PE50) is equipped with a valve to clear any blockage in the path; the other end is connected to disposable diaphgram dome (TA1019), which is then connected to the data converter, and through an amplifier, and then finally through the recorder to record the medication's impact on the male Wistar Strain's blood pressure and heartbeat. The Wistar Strain is given different dosages of test medication in 1.0, 1.5, 3.0 mg/kg respectively through intravenous injection to examine the medication's effects on heartbeat and blood pressure.

[6] = system: α-adrenoceptor; settings: versus L-phenylephrine contraction of detached chest artery; Schild plot regression
Procedure: Same as the blood vein relaxation experiment, detached primary artery taken from the guinea pig is given 1 gram of tension, and upon balancing for 60 minutes, L-phenylephrine is administered directly from low concentration to high using 0.5 log unit to gradually increase until the maximum reaction is reached, and this act as the control unit. Then different concentrations of the synthetic testing compound, 10^−7 M, 10^−6 M, or 10^−5 M, are used, and upon 30 minutes of reaction, L-phenylephrine is used again to complete the cumulative dose. The EC50 value may be obtained from observation of the suppressing effects caused by different concentrations of the synthetic testing compound.
It is same as the calculation method used in the experiment of the detached right auricle.

T1 sequence (Q8K4Z4 whole entry): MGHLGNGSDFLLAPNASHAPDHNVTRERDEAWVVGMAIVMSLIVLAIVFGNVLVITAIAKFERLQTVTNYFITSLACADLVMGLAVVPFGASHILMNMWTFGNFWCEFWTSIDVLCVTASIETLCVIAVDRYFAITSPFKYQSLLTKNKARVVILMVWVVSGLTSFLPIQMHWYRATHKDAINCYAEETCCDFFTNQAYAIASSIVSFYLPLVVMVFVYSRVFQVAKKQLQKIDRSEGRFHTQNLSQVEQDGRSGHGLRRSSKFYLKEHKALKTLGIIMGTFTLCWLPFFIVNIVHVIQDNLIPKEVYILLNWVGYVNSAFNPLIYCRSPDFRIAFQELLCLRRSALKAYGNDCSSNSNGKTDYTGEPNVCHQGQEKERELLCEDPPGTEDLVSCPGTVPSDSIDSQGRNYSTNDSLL

Row | SMILES | PA2 value β2 [1] | percentage of relaxation in comparison with the basal value ([2]; 10^−4 M) | percentage of relaxation in comparison with the basal value ([2]; 10^−5 M) | percentage of relaxation in comparison with the basal value ([2]; 10^−6 M) | PA2 value β1 right atrium [3] | PA2 value β1 left atrium [4] | Blood pressure change ([5]; 1 mg/kg intravenous) | Blood pressure change ([5]; 1.5 mg/kg intravenous) | Blood pressure change ([5]; 3 mg/kg intravenous) | PA2 value α [6]
1 | C=CCc1ccc(OCC(O)CNCCOc2ccccc2OC)c(OC)c1 (stereo not shown) [Compound 1, 1-[(4-allyl-2-methoxy)phenoxy}-3-[(2-methoxyphenoxyethyl)amino}-propanol] | 6.59 | −62.8 ± 8.7^a % | −51.7 ± 6.8% | −39.7 ± 9.1% | 7.83 | 7.95 | −23.1 ± 4.5 mmHg | −30.1 ± 3.6 mmHg | −38.1 ± 5.1 mmHg | 8.12
2 | CCOC(=O)C=Cc1ccc(OCC(O)CNCCOc2ccccc2OC)c(OC)c1 (stereo not shown) [Compound 2, 1-[(4-propenoic acid ethyl ester-2-methoxy)phenoxy]-3-[(2-methoxyphenoxyethyl)amino]-propanol] | 7.05 |  | −42.1 ± 9.1% | −35.9 ± 7.9% | 8.02 | 8.16 | −37.5 ± 5.2 mmHg | −44.2 ± 8.0 mmHg | −52.4 ± 4.5 mmHg | 7.95
3 | CCCCCCCCC(=O)NCc1ccc(OCC(O)CNCCOc2ccccc2OC)c(OC)c1 (stereo not shown) [Compound 3] | 6.81 |  | −40.7 ± 8.4% | −34.5 ± 4.2% | 7.80 | 7.61 | −32.6 ± 5.5 mmHg | −41.7 ± 4.0 mmHg | −52.0 ± 8.0 mmHg | 7.12
4 | CC=Cc1ccc(OCC(O)CNCCOc2ccccc2OC)c(OC)c1 (stereo not shown) [Compound 4, 1-[(4-propenyl-2-methoxy)-phenoxy]-3-[(2-methoxyphenoxyethyl)amino]-propanol] | 6.13 |  | −30.1 ± 3.6% | −23.4 ± 3.7% | 7.63 | 7.89 | −24.9 ± 3.2 mmHg | −29.5 ± 5.1 mmHg | −36.4 ± 7.2 mmHg | 7.20

From patent publication US6518450B2, “Guaiacoxypropanolamines with alpha/beta adrenergic blocking activity” (priority 1997, dated 2003)
